The source of these data is PubChem BioAssay (NCI).

Test systems include NCI-H522 lung; NCI/ADR-RES ovarian; MCF7 breast; SK-OV-3 ovarian; SF-268 CNS; SK-MEL-28 melanoma; CCRF-CEM leukemia; MALME-3M melanoma; UACC-62 melanoma; HT29 colon.
Common to all, as to experiment: NCI anticancer screen, dose series, 48 h

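Following 48 hours of exposure in 96-well plates, responses at five concentrations were used to interpolate endpoints linearly. The concentration for 50% growth inhibition is given as GI50. TGI denotes the concentration required for complete inhibition of growth.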

Consider `Cc1ccc(S(=O)(=O)N=Nc2c(O)[nH]c3cc(O)c(C(=O)O)cc23)cc1`, for which the TGI in the assay with NCI-H522 lung, in the assay on NCI/ADR-RES ovarian, with MCF7 breast, in the assay with SK-OV-3 ovarian, with SF-268 CNS and with SK-MEL-28 melanoma was over 100 µM throughout. In addition, the TGI in the assay with CCRF-CEM leukemia, in the assay with MALME-3M melanoma, with UACC-62 melanoma and in the assay with HT29 colon was over 100 µM throughout.
With `CNC(=O)OCc1c(COC(=O)NC)c(-c2ccc(-c3ccccc3)cc2)n(C)c1C`, the TGI with NCI-H522 lung was determined as 4.04 µM; in the assay on NCI/ADR-RES ovarian, 12.6 µM; in the assay on MCF7 breast, 14.5 µM; in the assay on SK-OV-3 ovarian, 11.8 µM; with SF-268 CNS, 5.32 µM; with SK-MEL-28 melanoma, 28.7 µM. Also, the TGI in the assay on MALME-3M melanoma is 10.6 µM; in the assay on UACC-62 melanoma it was 5.46 µM; in the assay with HT29 colon it was 13.9 µM.
In the case of `C[C@]12CCc3sc(Nc4ccc(OC(F)(F)F)cc4)nc3C1=CC[C@@H]1[C@@H]2CC[C@]2(C)C(=O)CC[C@@H]12`, the GI50 with NCI-H522 lung is 2.14 µM; in the assay with NCI/ADR-RES ovarian, 3.93 µM; in the assay with MCF7 breast, 1.82 µM; with SK-OV-3 ovarian, 3.04 µM; with SF-268 CNS, 3.01 µM; with SK-MEL-28 melanoma, 1.88 µM. Also, the GI50 in the assay with CCRF-CEM leukemia was 1.42 µM; in the assay on MALME-3M melanoma, 3.45 µM; with UACC-62 melanoma, 3.03 µM; with HT29 colon, 2.39 µM. In addition, the TGI with NCI-H522 lung was 4.56 µM; in the assay on NCI/ADR-RES ovarian, 20.2 µM; in the assay with MCF7 breast it was 4.14 µM; in the assay on SK-OV-3 ovarian, 10 µM; in the assay with SF-268 CNS it was 12.3 µM; in the assay with SK-MEL-28 melanoma, 7.98 µM. In addition, the TGI with CCRF-CEM leukemia was over 100 µM; with MALME-3M melanoma, 16.8 µM; in the assay on UACC-62 melanoma, 10.3 µM; in the assay on HT29 colon, 10.9 µM.
Consider `Cc1cn(C2CC(OC(=O)c3ccc(Cl)cc3)C(COC(=O)c3ccc(Cl)cc3)O2)c(=O)[nH]c1=O` (stereo not drawn), for which the TGI with NCI-H522 lung, in the assay with NCI/ADR-RES ovarian, in the assay on MCF7 breast, in the assay on SK-OV-3 ovarian, with SF-268 CNS and in the assay with SK-MEL-28 melanoma was over 100 µM throughout. Moreover, the TGI in the assay with CCRF-CEM leukemia, with MALME-3M melanoma, in the assay with UACC-62 melanoma and with HT29 colon was over 100 µM each time.
Consider `CCN(CC)CCNC(Cc1ccccc1)c1ccc(OCc2ccccc2)cc1` (stereo not drawn), for which the GI50 in the assay with NCI-H522 lung is 10.2 µM; with NCI/ADR-RES ovarian, 9.87 µM; in the assay on MCF7 breast, 3.03 µM; with SK-OV-3 ovarian it was 10.9 µM; in the assay on SF-268 CNS it was 7.57 µM; with SK-MEL-28 melanoma, 1.85 µM. Moreover, the GI50 is 3.19 µM with CCRF-CEM leukemia, 1.92 µM in the assay on UACC-62 melanoma and 2.44 µM in the assay on HT29 colon. Besides, the TGI came out at 22.7 µM in the assay on NCI-H522 lung; 23.2 µM in the assay on NCI/ADR-RES ovarian; 12 µM in the assay on MCF7 breast; 23.6 µM in the assay on SK-OV-3 ovarian; 22.3 µM with SF-268 CNS; 4.03 µM with SK-MEL-28 melanoma. The TGI in the assay on CCRF-CEM leukemia stood at 13.7 µM; in the assay on UACC-62 melanoma it was 3.89 µM; with HT29 colon, 11.8 µM.
On to `O=C(O)CCCc1ccc2ccc3ccccc3c2c1`, for which the TGI with NCI-H522 lung, in the assay with NCI/ADR-RES ovarian, in the assay on MCF7 breast, in the assay on SF-268 CNS, in the assay on SK-MEL-28 melanoma and in the assay on MALME-3M melanoma was over 100 µM each time. In addition, the TGI in the assay on UACC-62 melanoma and in the assay on HT29 colon was over 100 µM in each case.
In the case of `O=C(O)CSCCc1ccccc1`, the TGI in the assay on NCI-H522 lung, with NCI/ADR-RES ovarian, in the assay on MCF7 breast, with SK-OV-3 ovarian, with SF-268 CNS and with SK-MEL-28 melanoma was over 100 µM throughout. Moreover, the TGI in the assay with MALME-3M melanoma, in the assay with UACC-62 melanoma and with HT29 colon was over 100 µM throughout.
In the case of `C=C(C)[C@@H]1CC[C@]2(COCCCN)CC[C@]3(C)[C@H](CC[C@@H]4[C@@](C)(CCCNCCCN)[C@H](C(=C)C)CC[C@]43C)[C@@H]12`, the GI50 in the assay on NCI-H522 lung is 1.88 µM; in the assay with NCI/ADR-RES ovarian it was 1.88 µM; in the assay with MCF7 breast, 1.59 µM; with SK-OV-3 ovarian it was 2.23 µM; in the assay on SF-268 CNS it was 1.84 µM; with SK-MEL-28 melanoma, 1.72 µM. The figures for the GI50 in the assay on CCRF-CEM leukemia, with MALME-3M melanoma and in the assay on UACC-62 melanoma were 2.39 µM, 1.66 µM and 1.71 µM, respectively. For the same compound, the TGI amounted to 3.78 µM with NCI-H522 lung; 3.63 µM in the assay on NCI/ADR-RES ovarian; 3.22 µM in the assay on MCF7 breast; 4.9 µM in the assay with SK-OV-3 ovarian; 3.72 µM with SF-268 CNS; 3.14 µM in the assay on SK-MEL-28 melanoma. The TGI worked out at 7.34 µM in the assay on CCRF-CEM leukemia, 3.12 µM in the assay with MALME-3M melanoma and 3.22 µM in the assay on UACC-62 melanoma.
Consider `CCCOC(=O)N[C@H]1CCc2c(Cl)c(OC)c(OC)c(OC)c2-c2ccc(SC)c(=O)cc21`, for which the GI50 in the assay with NCI-H522 lung is under 0.01 µM; in the assay with NCI/ADR-RES ovarian it was 0.0269 µM; in the assay on MCF7 breast, under 0.01 µM; with SF-268 CNS, under 0.0117 µM; in the assay with SK-MEL-28 melanoma, 2.02 µM; in the assay with CCRF-CEM leukemia it was under 0.01 µM. The GI50 with MALME-3M melanoma, in the assay with UACC-62 melanoma and in the assay on HT29 colon was under 0.01 µM in each case. The TGI in the assay with NCI-H522 lung is 0.271 µM; in the assay with NCI/ADR-RES ovarian it was 21.6 µM; in the assay on MCF7 breast it was 13.1 µM; in the assay with SF-268 CNS, 17.4 µM; in the assay on SK-MEL-28 melanoma, 23.5 µM; in the assay on CCRF-CEM leukemia, over 100 µM. Besides, the TGI came out at 17.1 µM with MALME-3M melanoma, 13.8 µM with UACC-62 melanoma and 37.6 µM in the assay with HT29 colon.
Turning to `COc1cc(Nc2ncccc2C(=O)Nc2nc3ccc(F)cc3s2)cc(OC)c1OC`, the GI50 in the assay with NCI-H522 lung is 1.54 µM; with NCI/ADR-RES ovarian, 2.92 µM; with MCF7 breast, 3.23 µM; with SK-OV-3 ovarian it was 7.4 µM; in the assay with SF-268 CNS, 6.56 µM; in the assay on SK-MEL-28 melanoma it was 4.33 µM. The values for the GI50 with CCRF-CEM leukemia, with MALME-3M melanoma and in the assay on HT29 colon were 3.26 µM, 3.27 µM and 5.15 µM, respectively. Also, the TGI in the assay with NCI-H522 lung was 5.1 µM; in the assay with NCI/ADR-RES ovarian, over 100 µM; in the assay on MCF7 breast, over 100 µM; in the assay with SK-OV-3 ovarian it was over 100 µM; in the assay on SF-268 CNS, over 100 µM; in the assay on SK-MEL-28 melanoma, over 100 µM. The TGI in the assay with CCRF-CEM leukemia, in the assay on MALME-3M melanoma and in the assay on HT29 colon was over 100 µM in each case.
